A value given as a limit tells only on which side of the number the result lay.

In a melting point compilation (Tetko et al.; mined from patent text by program, amines drawn as free bases though some values may be those of a salt) one finds melting point data, which are given here for 87 compounds.

Compound `COc1ccc(C(=CC#N)c2cccc(N)c2)cc1OC` registered a melting point of 100 to 101 °C. With `CCOC(=O)C(C)Oc1ccc(N(C)c2cnc3cc(Cl)c(Cl)cc3n2)cc1` (configuration not stated), the melting point was determined as 79 °C.

`Cc1ccc(Sc2ncnc3ccccc23)cc1` had a melting point of 96 °C. `Cc1ccc(NC(=S)Nc2cccc3c2C2CCCCN2C3=O)nc1` (configuration not stated) returned a melting point of 232 °C. The value for `COc1cccc2c1C(=O)c1cccc3cc(O)cc-2c13` was 298 to 300 °C; that for `O=C1CN(C(=O)COc2cc(-c3ccccc3)nc3ccccc23)CCN1` was 215 °C. `Cc1cc(O)c(C(=O)Nc2ccc(S(=O)(=O)C(F)(F)F)cc2Cl)c(C)c1S(C)=O` (configuration not stated) came in with a melting point of 205 to 206 °C. The value for `CCN1CCN([C@@H]2c3cc(C#N)ccc3OC(C)(C)[C@H]2O)C1=NC#N` (relative stereo) was 231 to 233 °C; that for `Cc1cc(NC(=O)N(CC(C)C)CC(C)C)cc(C)c1S(=O)(=O)C[N+](=O)[O-]` was 153 to 155 °C; that for `O=C(O)c1cc(Oc2cc(Cl)c(Cl)cc2Cl)ccc1[N+](=O)[O-]` was 157 to 161 °C.

With `CCOC(=O)Nc1nc(C)co1`, the melting point was 126 °C. `O=C(O)c1cc(S(=O)(=O)CCO)ccc1[N+](=O)[O-]` showed a melting point of 165 to 167 °C. The value for `Cc1ccc(S(=O)(=O)N2[C@@H](c3nc(C)no3)CC[C@H]2c2ccc(F)cc2)cc1` (racemic) was 128 °C. For the compound `CCCCOc1c(CN2C(=O)c3ccccc3C2=O)n(CC2CC2)c(=O)c2ccc(OCc3ccccc3)cc12`, the melting point lay within 127 to 128 °C. For the compound `COc1ccc(CN2CCC(COc3ccc(F)cc3)CC2)cc1`, the melting point lay within 79 to 81 °C. The value for `Nc1ncc(-c2ccc3c(c2)CCC(N2CCOCC2)CC3)c(N)n1` (configuration not stated) was 118 °C; that for `O=C(O)CCNC(=O)C(CS)Cc1ccccc1` (configuration not stated) was 76 to 82 °C; that for `COC(COC(=O)C1=C(C)NC2=C(C(=O)CNC2)C1c1cccc(Cl)c1)c1ccccc1` (configuration not stated) was 165 to 167 °C.

`CN(C)c1ncnc2c(-c3ccncc3)cnn12` came in with a melting point of 184 to 185 °C. Consider `CN1C(=O)Cc2cc(C(=O)[C@H]3C[C@H]3C(=O)O)ccc21` (relative stereo), for which the melting point fell in the range of 237 to 240 °C.

Take `COC(=O)c1c(OC(=O)N(c2ccccc2)c2ccccc2)cc(C(F)(F)F)nc1C(F)(F)F`: the melting point lay in the range of 114 to 116 °C. The compound `CN(C)C(=O)Cn1c(-c2ccc(Cl)cc2)nc2cccnc21` showed a melting point of 212 to 213 °C. The value for `CS(=O)(=O)n1c2cc(O)c(O)cc2c2cc(O)c(O)cc21` was 278 to 280 °C; that for `Cc1oc(-c2ccco2)nc1COc1ccc(CO)cn1` was 120 to 121 °C; that for `N#Cc1cnc2cc(-c3ccc(CO)cc3)sc2c1Nc1ccc(Oc2ccccc2)cc1` was 225 to 228 °C. Turning to `COCOc1cc(Cl)ccc1-c1cc(-c2cccc(C(=O)OC)c2)c(C#N)c(N)n1`, the melting point is 159 to 160 °C. `NS(=O)(=O)c1ccc(-c2cc(-c3nc(-c4ccc(F)c(F)c4)cc(C(F)(F)F)n3)ccn2)s1`: the melting point stood at 281 °C.

In turn, `COC(=O)C(C)(Oc1cccc(Oc2c(Cl)cc(C(F)(F)F)cc2Cl)c1)[N+](=O)[O-]` (configuration not stated) yielded a melting point of 78 °C.

Compound `Cc1c2c(cn1C)CN=C(c1ccccc1Cl)c1cc(Cl)ccc1-2` returned a melting point of 200 to 202 °C.

The compound `CNC(=O)c1ccccc1Nc1nc(Nc2ccc3c(c2)CCN(C(C)C)CC3)ncc1Cl` yielded a melting point of 140 to 158 °C. The compound `COC(=O)c1cc(C(=O)Nc2nccs2)c2cc(Cc3ccc(F)cc3)cnc2c1O` came in with a melting point of 258 to 259 °C. The value for `CSc1ccc(-c2nn(Cc3ccccc3)c(=O)cc2-c2ccc(F)cc2)cc1` was 141 °C; that for `Cn1nc(C(=O)O)cc1OCCCN1CCN(c2cccc3sccc23)CC1` was 114 to 118 °C.

Turning to `CNCCN(C)C(=O)[C@@H]1CCCN1S(=O)(=O)c1ccc(Cl)c(COc2cccc3c(-n4ccnc4)cc(C)nc23)c1Cl`, the melting point was 116 °C. `CN(c1ccc(O)cc1)c1nc2cc(Cl)ccc2o1` gave a melting point of 216 to 217 °C.

Consider `CCOC(=O)N1CCN(C(=O)C2CCC(=O)N2)CC1` (configuration not stated), for which the melting point fell in the range of 147 to 148 °C. The value for `O=C(c1ccc2c(c1)OC(c1cccc(Cl)c1)(c1cccc(Cl)c1)O2)N1CCCCC1` was 54 °C. In turn, `COc1cccc(Cc2cc3cccc(-c4cccc(C(=O)O)c4)c3o2)c1` showed a melting point of 127 to 129 °C. The value for `CCN(C=Nc1ccncc1O)CC` was 104 to 106 °C; that for `COc1ccc(SC(C(=O)O)c2ccccc2)c(Cl)c1Cl` (configuration not stated) was 180 to 182 °C; that for `CCOC(=O)c1ccc(-c2ccc(-c3ccccc3)c(-c3cc4c(cc3O)C(C)(C)CCC4(C)C)c2)cc1` was 145 °C.

`Cn1ncc2c(c1=O)S(=O)CCNC2Cc1ccccc1` (configuration not stated) showed a melting point of 162 to 163 °C. As to `CCCc1nc(C#N)c(N)n1CC(C)C`, the melting point is 135 to 136 °C. The value for `Nc1ccc(CCC(=O)N(c2ccccc2)c2ccccc2)cc1[N+](=O)[O-]` was 189 to 190 °C; that for `Cc1[nH]c(=O)c(C(N)=O)cc1-c1ccc2nccn2c1` was over 300 °C; that for `CSCc1c[nH]c(=O)[nH]c1=O` was 239 to 241 °C. In turn, `Cc1cc(C)c(-c2cc3cnc(N)nc3nc2NC(=O)NC(C)(C)C)c(C)c1` came in with a melting point of 281 to 297 °C. The value for `CCOC(=O)c1ncc2[nH]c3ccc(C(C)(C)C)cc3c2c1C` was 201 to 203 °C; that for `Cc1cccc(-n2c(-c3sc(Nc4ccccc4)nc3-c3ccccc3)nc3ccccc3c2=O)c1` was 105 to 107 °C. The compound `N#Cc1cc(Cn2nnc(C(N)=O)c2N)ccc1Cl` gave a melting point of 172 to 175 °C. As to `CC#CCOc1ccc(S(=O)(=O)C2(C(=O)NO)CCCN(Cc3ccc(Cl)cc3)C2)cc1` (configuration not stated), the melting point was found to be 124 °C. `CCOCc1nc2c(N)nc3ccccc3c2n1CC1(OCCS(C)(=O)=O)CCCCC1` came in with a melting point of 159 to 161 °C. The value for `CC(=O)c1ccc(-c2ccc(O)c(F)c2)cc1` was 155 to 158 °C.

For `O=C1CCCc2nc3sccc3c(NCc3ccccc3)c21`, the melting point fell in the range of 159 to 160 °C.

For `CCOC(=O)c1nccn1C1C(=O)c2ccccc2N1C(C)=O` (configuration not stated), the melting point came to 210 °C.

In the case of `Cc1ccc(-n2c(-c3sc(NC(=O)c4ccccc4)nc3-c3ccccc3)nc3ccccc3c2=O)cc1`, the melting point is over 275 °C. The value for `CC(C)[C@@H](NS(=O)(=O)c1ccc(-c2ccsc2)cc1)C(=O)O` was 169 °C; that for `O=S1(=O)N=CN(C2CCCCCCC2)c2cc(Cl)ccc21` was 209 to 211 °C. In the case of `O=CN(O)C(CCc1ncc(F)cn1)CS(=O)(=O)N1CCN(c2ccc(Cl)cn2)CC1` (configuration not stated), the melting point is 154 to 155 °C.

For `CSc1ccc(N(C(C)C)S(=O)(=O)c2ccc(C)cc2)c([N+](=O)[O-])c1`, the melting point lay within 124 to 126 °C. The value for `CCCCOC(=O)CCCOc1ccc(F)c(C(N)=O)c1F` was 53 to 55 °C; that for `CCOCc1nc2c(N)nc(C)cc2n1CCCCNC(=O)N1CCOCC1` was 156 to 160 °C. The value for `CCCN(CCC)C(=O)COc1nc(-c2ccccc2)nc(C)c1C` was 88 to 89 °C; that for `CCSc1c(Cl)c(C(=O)O)c(C(O)=NC)c(Cl)c1SCC` was 154 to 155 °C; that for `CCNC(=O)c1c(F)cccc1[Si](C)(C)C` was 86 to 87 °C. The value for `COC(=O)C(=O)c1ccc(C#CCNC(=O)c2ccc3ccccc3c2)cc1` was 113 to 114 °C; that for `CCOC(=O)CNC(=O)[C@H](CSCc1ccccc1)NC(=O)OCc1ccccc1` was 93 to 95 °C; that for `Cc1noc(NC(=O)N2CCN(c3ccnc(-c4ccc(F)cc4F)n3)CC2)c1C` was 207 to 208 °C. On to `Cc1ccc2cccc(OCc3c(Cl)ccc(OCCN)c3Cl)c2n1`, for which the melting point fell in the range of 123 to 125 °C.

In turn, `CCOC(=O)CNC(=O)Nc1ccc2oc3c(OC)ccc(C(=O)Nc4c(Cl)cncc4Cl)c3c2c1` registered a melting point of over 250 °C. On to `CCOC(=O)C(=O)CCc1ccccc1`, for which the melting point was 126 to 127 °C. The value for `Cc1cc(Br)cc(/C=N/O)c1F` was 126 to 127 °C; that for `N#Cc1ncn2c(C(F)(F)F)cc(-c3ccccn3)nc12` was 205 °C; that for `CC(=O)c1ccc(CCNS(=O)(=O)c2ccc(C)cc2)cc1` was 124 to 126 °C.

As for `CCC(CC)c1ccc(Cl)c2nc3n(c12)CC(C)N3c1cnc(N(C)C)cc1C` (configuration not stated), the melting point was 204 to 206 °C.

`CC1(O)CCC2C3CCC4=CC(=O)CCC4C3C(=CF)CC21C` (configuration not stated) yielded a melting point of 127 to 131 °C.

With `COC(=O)c1ccc(S(=O)(=O)Cc2c(O[C@H](Cn3ccnc3)c3ccccc3)ccc3c2CCCC3=O)cc1`, the melting point was 105 °C. The value for `c1cnnc(N2CCN(CCCOc3ccc(C4=NCCO4)cc3)CC2)c1` was 145 °C; that for `Cc1ccsc1C(=O)NCCO[N+](=O)[O-]` was 74 to 76 °C. The value for `CC#CCOc1ccc(S(=O)(=O)C2(C(=O)O)CCN(C(C)C)CC2)cc1` was 233 °C; that for `Cc1cc(C(=O)Nc2ccc3cc(CN4CCCC4)cnc3c2C)ccc1-c1ccc(F)cc1` was 200 to 202 °C. The value for `COC(=O)c1cc([N+](=O)[O-])ccc1OC(C)=O` was 70 to 72 °C.

In turn, `COC(=O)CN(CC(=O)OC)S(=O)(=O)c1ccc(C)cc1` gave a melting point of 99 to 100 °C. Take `NC(Cc1ccccc1)C(O)C(F)(F)F` (configuration not stated): the melting point lay in the range of 110 to 111 °C. The value for `Cc1cccc(NC(=O)NCC(=O)N(CC(=O)OC(C)(C)C)c2ccccc2C)c1` was 133 °C. `C=C1CSC2C(NC(=O)OC(C)(C)C)C(=O)N2C1C(=O)OC(c1ccccc1)c1ccccc1` (configuration not stated) displayed a melting point of 135 to 137 °C. For the compound `c1cnc2ccc(Cn3nnc4ccc(-c5cnn(C6CCNCC6)c5)nc43)cc2c1`, the melting point lay in the range of 188 to 191 °C.
